Experimental data: ChEMBL document CHEMBL1143678, “Self-assembling cannabinomimetics: supramolecular structures of N-alkyl amides” (J Nat Prod, 2007)

Molecular target: Cannabinoid receptor 2 (Homo sapiens, UniProt P34972)
Assay: Displacement of [3H]CP-55940 from CB2 receptor expressed in HEK cells
Type: cell-based, HEK293

Chain of Cannabinoid receptor 2 (P34972 whole entry): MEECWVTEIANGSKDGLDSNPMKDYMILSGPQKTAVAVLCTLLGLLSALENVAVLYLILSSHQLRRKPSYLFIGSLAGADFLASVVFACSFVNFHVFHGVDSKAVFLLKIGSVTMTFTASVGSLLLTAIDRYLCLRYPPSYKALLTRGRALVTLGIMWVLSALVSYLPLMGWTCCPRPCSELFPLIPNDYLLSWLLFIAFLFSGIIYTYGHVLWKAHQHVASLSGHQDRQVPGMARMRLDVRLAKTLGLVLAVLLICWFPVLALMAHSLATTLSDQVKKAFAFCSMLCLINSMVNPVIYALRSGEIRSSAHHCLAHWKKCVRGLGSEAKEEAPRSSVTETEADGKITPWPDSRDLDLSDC

SMILES: CCCCCCC/C=C/C=C/C(=O)NCC(C)C
- Ki: 52 nM
